Source: US9919941B2, “Multiple uses of amine salts for industrial water treatment” (AMSA, Inc., priority 2012, dated 2018)
Where “and” joins values, the source holds several entries; their conditions need not be identical. Equal entries are not always repeated.

Key:
[1] = calcium carbonate scale inhibition (conductometric titration, supersaturation ratio Sr)
Procedure: To a 100 mL beaker were added 60 mL of HPLC-grade water and 3 mL of 0.1 M calcium chloride. An appropriate amount (0.5-4 mL) of an aqueous solution of the inhibitor compound of Formula (I) to be tested was then added. The solution was magnetically stirred at a constant speed for all experiments. The sample was then titrated with 0.1 M sodium carbonate. After addition of each 0.2 mL aliquot of sodium carbonate titrant, the solution was mixed for 1 min and then the conductivity of the solution measured.
As titrant is added the conductivity increases in a linear fashion. When the supersaturation point is reached, the conductivity decreases and precipitation begins. This is considered the endpoint of the titration. The resulting titration endpoint volumes are used to calculate a relative supersaturation ratio (Sr). This is the ratio of the supersaturation of calcium carbonate in the presence of the compound of Formula (I) being tested to the value of the supersaturation of water without inhibitor (distilled water plus 3 mL of 0.1 M calcium chloride). Thus, compounds with Sr>1 are displaying scale inhibition.
The scale inhibition performance of various compounds of Formula (I) and comparative compounds were compared at the same molar concentration. These compounds were tested at 60 μM concentration except where noted otherwise. Compound numbers are from Table 1.

[2] = mild steel corrosion inhibition, ASTM G31-72 coupon weight loss
Procedure: (§1) Corrosion inhibition studies of various compounds of Formula (I) were conducted according to ASTM method G31-72 (2004). The following is the general test method.
(§2) Aqueous solutions of the test compound (900 mL) were prepared with city water for mild steel corrosion studies or a dilute sea salt solution (1000 ppm in deionized water) for copper corrosion studies. The solutions were magnetically stirred at a constant rate in a 1 L beaker and three coupons of either mild steel or copper were suspended in each beaker. After 5 days (steel) or 7 days (copper), the coupons were removed and cleaned according to ASTM method G1-03. Average weight loss was determined for each set of three coupons and then converted to corrosion rate in terms of mils per year (mpy).
These tests compare the corrosion inhibition of compounds of Formula (I), namely from Table 1, in the first set of comparisons, Compound A with Compound 13, and Compound B with Compound 1, and with 2-hydroxypropane-1,2,3-tricarboxylic acid. Thus five samples were tested relative to a blank and a standard, (1-hydroxyethan-1,1-diyl)bis(phosphonic acid), after 5 days at 26 μM concentrations. […] Concentrations were 26 μM.
Additional mild steel corrosion tests were performed at 130 μM concentration of compounds of Formula (I) and comparative compounds for 5 days. The next test compared the corrosion inhibition of Compound 8 with 2,3-dihydroxybutanedioic acid and Compound B, and Compound 4 with (1-hydroxyethan-1,1-diyl)bis(phosphonic acid) and Compound B. Also included was Compound 1 for reference. Concentrations in this set were 130 μM.

[3] = copper corrosion inhibition, ASTM G31-72 coupon weight loss
Procedure: as §1, §2
The first test of copper corrosion inhibition compared Compound A with Compound 13 (from Table 1), 2-hydroxypropane-1,2,3-tricarboxylic acid, and a commercial inhibitor, Na-TAI.

[4] = 5 days, 130 μM, Table 4 (blank 24 mpy)
[5] = 130 μM, Table 5 (blank 12.5 mpy)

O=C(O)C(O)C(O)C(=O)O (stereo not drawn) [2,3-Dihydroxybutanedioic acid]
Sr (supersaturation ratio) ([1]; 60 μM): 1.0 | Inhibition relative to blank [2, 4]: 20%

O=P(O)(O)O [Trihydroxidooxidophosphorus]
Inhibition relative to blank [2, 5]: 40%

O=C(O)CCC(CC(=O)O)(C(=O)O)P(=O)(O)O (stereo not drawn) [2-phosphonobutane-1,2,4-tricarboxylic acid]
Sr (supersaturation ratio) ([1]; 5.9 μM): 3.0

Salt of Oxyamine (II) and Butanedioic acid salt (1:1 molar stoichiometry) [Compound 10]
Sr (supersaturation ratio) ([1]; 60 μM): 1.0

Salt of Oxyamine (II) and 2,3-Dihydroxybutanedioic acid salt (1:1 molar stoichiometry) [Compound 8]
Sr (supersaturation ratio) ([1]; 60 μM): 1.3 | Sr (supersaturation ratio) ([1]; 120 μM): 1.5 | Inhibition relative to blank [2, 4]: 44%

Salt of Oxyamine (II) and Ethanedioic acid salt (1:1 molar stoichiometry [Compound 2]
Inhibition relative to blank [2, 5]: −21%

[Na+].c1ccc2[n-]nnc2c1 [Na-TAI, sodium salt of 1,2,3-triaza-1H-indene]
Inhibition relative to blank ([3]; 7 days, 17 μM, Table 6): 71%

O=C(O)C(O)C(O)C(O)C(O)C(=O)O (stereo not drawn) [2,3,4,5-tetrahydroxyhexanedioic acid]
Sr (supersaturation ratio) ([1]; 60 μM): 1.4

Salt of Oxyamine (II) and Trihydroxidooxidophosphorus salt (1:1 molar stoichiometry) [Compound 3]
Inhibition relative to blank [2, 5]: 55%

O=C(O)C(=O)O [Ethanedioic acid]
Inhibition relative to blank [2, 5]: −16%

CC(O)(P(=O)(O)O)P(=O)(O)O [(1-hydroxyethan-1,1-diyl)bis(phosphonic acid)]
Sr (supersaturation ratio) ([1]; 45 μM): 2.5 | Sr (supersaturation ratio) ([1]; 60 μM): 4.4 | Inhibition relative to blank ([2]; 5 days, 26 μM, Table 3): 36% | Inhibition relative to blank [2, 4]: 62%

O=C(O)CCC(=O)O [Butanedioic acid]
Sr (supersaturation ratio) ([1]; 60 μM): 1.0

O=C(O)CC(O)(CC(=O)O)C(=O)O [2-hydroxypropane-1,2,3-tricarboxylic acid]
Sr (supersaturation ratio) ([1]; 63 μM): 1.2 | Inhibition relative to blank ([2]; 5 days, 26 μM, Table 3, 26 µM): 9.8% and 10% | Inhibition relative to blank ([3]; 42 μM, Table 7): 9% | Inhibition relative to blank ([3]; 7 days, 17 μM, Table 6): 0%

CC(O)(P(=O)(O)O)P(=O)(O)O.CCCCCCCCCCOCCCN [Compound 4, Salt of Oxyamine (II) and (1-Hydroxyethan-1,1-diyl)bis(phosphonic acid) (1:1 Molar Stoichiometry)]
Sr (supersaturation ratio) ([1]; 60 μM): 4.3 | Inhibition relative to blank [2, 4]: 68%
